# Details: buffer; pH 7.4; 200.0 µM
row,solubility kinetic,Compound
1,> 29.5 µg/mL,O=C(Nc1ccc(Cl)cn1)C1CC1
2,29.2 µg/mL,O=[N+]([O-])c1ccccc1/C=C/CN1CCSCC1
3,32.3 µg/mL,Cc1ccc(S(=O)(=O)N2CCCC2)s1
4,16 µg/mL,Cc1cc(=O)[nH]c2ccc(S(=O)(=O)N3CCOCC3)cc12
5,29.9 µg/mL,Cc1cccc(OCCCCCN2CCOCC2)c1
6,> 37.7 µg/mL,O=C(OCCN1CCOCC1)c1ccc(O)cc1
7,31.8 µg/mL,COC(=O)c1ccc(NC(=O)C2CCCN(S(C)(=O)=O)C2)cc1 (stereo not given)
8,41.8 µg/mL,CC1CCCN(C(=O)NC(=O)c2ccc(Cl)cc2)C1 (stereo not given)
9,> 50.5 µg/mL,O=C(NCc1ccccc1)C1CCN(C(=O)Cc2ccccc2)CC1
10,49.9 µg/mL,Cc1cc(C)cc(OCC(=O)Nc2ccc(CN3CCCCC3)cc2)c1
11,47.4 µg/mL,COc1ccc(Cl)cc1C(=O)N1CCN(Cc2ccc3c(c2)OCO3)CC1
12,40 µg/mL,CCOC(=O)C1CCCN(Cc2nc(CC3CC3)no2)C1 (stereo not given)
13,> 38.6 µg/mL,CC1CC(C)CN(C(=O)c2ccc3nc[nH]c3c2)C1 (stereo not given)
14,50.9 µg/mL,Cc1ccc(N(CC(=O)N2CCN(Cc3ccccc3)CC2)S(C)(=O)=O)cc1C
15,> 38.6 µg/mL,Cc1cc(C)c2c(CC(=O)N3CCCC3)coc2c1
16,30.8 µg/mL,CCc1cc2c(NC3CCCC3)ncnc2s1.Cl
17,42.1 µg/mL,Cc1ccc(C)c(OCc2cc(C(=O)N3CCOCC3)no2)c1
18,> 56.9 µg/mL,Cc1ccc(NC(=O)c2c(C)noc2C)cc1S(=O)(=O)N1CCOCC1
19,> 49 µg/mL,Cc1cccc(C)c1N(CC(=O)N1CCOCC1)S(C)(=O)=O
20,> 47.8 µg/mL,O=C(c1ccncc1)N1CCN(c2ccc3ccccc3n2)CC1
21,> 39 µg/mL,CN1CCN(NC(=O)c2ccc(Cl)s2)CC1
22,36.2 µg/mL,Cc1cc(Nc2cccc(F)c2)nc(N2CCOCC2)n1
23,47.7 µg/mL,CN(C)c1ccc(/C=C(/NC(=O)c2ccccc2)C(=O)N2CCCC2)cc1
24,34 µg/mL,Cc1c(Cl)cccc1Nc1ncccc1C(=O)O
25,6.8 µg/mL,Cc1cccc(C(=O)OCC(=O)N2CCc3ccccc3C2)c1O
26,> 48.7 µg/mL,CCCN1CCN(CCNC(=O)Nc2ccccc2Cl)CC1
27,> 42.1 µg/mL,Cn1cnnc1SCC(=O)NCCC1=CCCCC1
28,< 0.4 µg/mL,COc1ccc2[nH]c(C(=O)N3CCC(Cc4ccccc4)CC3)cc2c1
29,> 49 µg/mL,Cc1ccc(C(=O)N2CCC(C(=O)NCc3ccco3)CC2)cc1
30,> 42.9 µg/mL,Cn1cc(Br)c(C(=O)N2CCCCCC2)n1

# Second part, the molecule before the results:
row,Compound,solubility kinetic
1,COc1ccc(-c2noc(CN(C)C(=O)c3ccoc3C)n2)cc1OC,43.3 µg/mL
2,O=C(Nc1cc(-c2ccccc2)cs1)c1ccco1,4.7 µg/mL
3,Cc1ccc(NC(=O)CSc2ccc3c(c2)OCCO3)c(O)c1,36.9 µg/mL
4,O=S(=O)(NC1CCN(Cc2ccccc2)CC1)c1ccc(Cl)cc1,> 54.7 µg/mL
5,c1ccc(CN2CCc3nc4ccccc4cc3C2)cc1,33.2 µg/mL
6,Cc1ccc(S(=O)(=O)N(CC2CO2)c2cccc([N+](=O)[O-])c2)cc1 (stereo not given),43.9 µg/mL
7,COc1ccc(Nc2c(-c3ccco3)nc3ccc(C)cn23)cc1,0.5 µg/mL
8,COc1ccc(NC(=O)CC(C)CC(=O)NCc2ccc(F)cc2)c(OC)c1 (stereo not given),6.8 µg/mL
9,COc1ccccc1CN(C)CC(=O)Nc1cccc(S(=O)(=O)N2CCCC2)c1.O=C(O)C(=O)O,57.3 µg/mL
10,CCC(=O)c1cn(CC(=O)Nc2cccc(OC)c2)c2ccccc12,< 0.4 µg/mL
11,CC(C)Oc1ccc(C2NC(=O)c3ccccc3O2)cc1 (stereo not given),2.6 µg/mL
12,Cc1csc2c(=O)sc(NC(=O)c3ccc(F)cc3)nc12,< 0.3 µg/mL
13,CCOC(=O)c1c(C)[nH]c(C(=O)COC(=O)CCNS(=O)(=O)c2ccc(NC(C)=O)cc2)c1C,19.2 µg/mL
14,CC(=O)c1ccc(NC(=O)C2CC(=O)N(C(C)C)C2)cc1 (stereo not given),> 43.3 µg/mL
15,COc1ccc(C(=O)N[C@H](C(=O)NCc2ccccc2)C(C)C)cc1,5.2 µg/mL
16,O=c1oc2cccnc2n1CCS(=O)(=O)c1ccc(F)cc1,45 µg/mL
17,CC(C)(C)C(=O)O/N=C(\N)COc1cccc(Cl)c1,25.4 µg/mL
18,CC(=O)Nc1ccc(N2C(=O)CSC2c2ccccc2[N+](=O)[O-])cc1 (stereo not given),41.1 µg/mL
19,COc1cc(/C=C(\NC(C)=O)C(=O)O)cc(OC)c1OC,> 44.3 µg/mL
20,O=S(=O)(NCCCN1CCOCC1)c1ccc2ccccc2c1,> 50.2 µg/mL
21,Cc1cc(C)c2c(n1)sc1c(=O)n(Cc3ccc(F)cc3)cnc12,< 0.2 µg/mL
22,COc1ccccc1NC(=O)C(C)OC(=O)Cc1ccsc1 (stereo not given),> 47.9 µg/mL
23,ClC1(Cl)CC1Cn1cnc2ccccc21 (stereo not given),33.4 µg/mL
24,O=C(COC(=O)c1cc(Cl)ccc1[N+](=O)[O-])NC1CC1,> 44.8 µg/mL
25,N#CC(C#N)=Cc1ccc(N2CCOCC2)cc1,4.4 µg/mL
26,CCc1cccc(C)c1NC(=O)CCNC(=O)c1cccc(C)c1,> 48.7 µg/mL
27,Cc1ccc(NC2=CC(=O)CC(C)(C)C2)cc1Cl,16.2 µg/mL
28,O=C1c2cccc3cccc(c23)C(=O)N1c1cccc(O)c1,1.3 µg/mL

row,Compound,solubility kinetic
1,NC(=O)c1ccc[n+](CC(=O)NCc2ccc(Cl)cc2)c1.[Cl-],> 51 µg/mL
2,CC(=O)Nc1cccc(-c2cc(-c3c(Cl)cccc3Cl)no2)c1,3.7 µg/mL
3,O=C(COC(=O)C12CC3CC(CC(C3)C1)C2)NCc1ccccc1,10.2 µg/mL
4,CSc1ncccc1C(=O)OCC(=O)NC1CC1,> 39.9 µg/mL
5,O=C(NCc1ccncc1)c1cncc(Br)c1,> 43.8 µg/mL
6,CC(=O)c1cn(-c2ccc(Cl)cc2)c(=O)[nH]c1=O,33.7 µg/mL
7,N/C(=N\OC(=O)c1ccc(Cl)c([N+](=O)[O-])c1)c1ccccn1,2.7 µg/mL
8,CCCS(=O)(=O)Nc1c(C(=O)O)[nH]c2ccc(OC)cc12,46.3 µg/mL
9,O=C1N(CCCl)c2ccc(Br)cc2C12OCCO2,48.1 µg/mL
10,O=C(CNC(=O)c1ccc2c(c1)OCO2)NCc1cccs1,34.8 µg/mL
11,CC(=O)NC1c2ccccc2C(=O)N1Cc1ccccc1 (stereo not given),39.9 µg/mL
12,COc1ccc(NC(=O)Cc2ccsc2)c(OC)c1,> 41.6 µg/mL
13,O=C(Nc1ccc(F)cc1)c1csc(Cc2ccccc2)n1,1.3 µg/mL
14,CN1C(C(=O)c2ccccc2)=C(N)c2ccccc2S1(=O)=O,40.9 µg/mL
15,Cc1ccc(NC(=O)C2OCCc3ccccc32)cc1Cl (stereo not given),< 0.6 µg/mL
16,CCN(c1ccccc1)S(=O)(=O)c1ccc(Cl)nc1,32 µg/mL
17,CC(C)CNS(=O)(=O)c1cc(C(=O)O)c(Cl)cc1Cl,> 48.9 µg/mL
18,CN(C)C(CNC(=O)c1ccc(Br)cc1)c1ccco1 (stereo not given),30.4 µg/mL
19,CCOC(=O)c1ccccc1NC(=O)c1ccc2nc[nH]c2c1,11.3 µg/mL
20,Cc1c(C)n(CCc2ccccc2)c2ncnc(NCCCO)c12,48.3 µg/mL
21,CCOC(=O)c1c(C)[nH]c(C(=O)C(C)N2CCCC2)c1C (stereo not given),37 µg/mL
22,CCCC(=O)NC(=S)Nc1cc(-c2nc3ncccc3o2)ccc1C,0.5 µg/mL
23,CC1([N+](=O)[O-])COC2(OC1)C(=O)Nc1ccccc12 (stereo not given),> 39.6 µg/mL
24,C/C(=N\n1c(C)nc2ccccc2c1=O)c1ccc(C)o1,> 42.2 µg/mL
25,O=C(Nc1ccc(F)cc1)c1ccc(CSc2ccc(Cl)cc2)o1,4.3 µg/mL
26,O=C(NCc1csc(-c2cccs2)n1)Nc1cccc(Cl)c1,0.3 µg/mL
27,COC(=O)[C@@H]1CC(O)CN1C(=O)C12CC3CC(CC(C3)C1)C2 (stereo not given in full),> 46.1 µg/mL

# — PubChem BioAssay AID1996
